{
  "source": "patent US5770595A",
  "about": "“Oxime substituted therapeutic compounds” (Cell Therapeutics, Inc., priority 1994, dated 1998)",
  "key": {"L929 cells": {"test_system": "L929 cells", "experiment": "TNF-α-mediated cytotoxicity in L929 cells", "assay_type": "cell-based, murine", "settings": "human TNF-α 300 pg/ml; FIG. 9", "method": "An inventive compound can be assayed for activity protecting TNF-mediated cytotoxicity. In this assay, L929 murine fibroblast cells (10^4 cells per well) are incubated with either compounds at varying doses and media control for two hrs. […] The cells plus (or minus) drug plus TNF were incubated for 40 hrs at 37° C. The media is removed and replaced with fresh media containing 2% serum and 10 μg/ml of BCECF fluorescent dye and incubated for 30 min. The fluorescent dye-containing media is removed and replaced with PBS (phosphate buffered saline) and each well was assayed for fluorescence.\nThis assay is a model for septic shock. L929 cells (10^5) were treated with human TNF-α at 300 pg/ml in RPMI media containing 10% fetal calf serum with or without compound no. One day later, the cells were stained for viability using the fluorescent dye BCECF and fluorescence of the samples was analyzed using a Milipore plate reader."}, "PAPH": {"test_system": "PAPH", "experiment": "inhibition of PAPH / DAG formation in specific activation pathway", "assay_type": "biochemical, human", "settings": "specific activation pathway that does not involve PI", "excerpt": "The compounds and pharmaceutical compositions of the invention include inhibitors of subspecies of LPAAT and PAPH enzymes with substrate specificity for intermediates with 1,2-diunsaturated and 1-alkyl, 2-unsaturated subspecies. One representative example of such an inhibitor (although not within the genus of inventive compounds) is PTX. […] It should be emphasized that the compounds of the invention affect that subset of PAPH and LPAAT that relates to substrates with unsaturated fatty acids other than arachidonate in the sn-2 position, not the housekeeping forms of these enzymes that serve the PI pathway.\n(§1) One in vitro assay measures inhibition of the relevant enzymes lysophosphatidic acid acyltransferase (LPAAT) and phosphatidic acid phosphoryl hydrolase (PAPH). […] It is important to note that the assay method permits discrimination between various forms of PA and DAG so that those relevant to the pathway affected by the (R) or (S) compounds of the invention can be measured directly. […] Thus, the relevant unsaturated (non-arachidonic) PA and DAG subspecies may be detected. […]"}, "LPAAT": {"test_system": "LPAAT", "experiment": "formation of remodeled PA at LPAAT", "assay_type": "biochemical", "excerpt": "Even in the presence of PTX, cells continue to form PA through the action of PLD, and DAG is also formed through the action of phospholipase C on PC and PI. The latter pathway are not inhibited by the inventive compounds or PTX. In PTX-treated cells, DAG derived from remodeled and PLA-generated PA is diminished (e.g., 1,2-sn-dioleoyl DAG, 1-alkyl, 2-linoleoyl DAG and 1-alkyl, 2-docosahexaneolyl DAG). Therefore, the inventive compounds and PTX inhibit the formation of only a certain species of PA and DAG by selectively inhibiting a specific second messenger pathway that is only activated in cells by noxious stimuli, but is not used to signal normal cellular housekeeping functions.\nas §1"}, "[1]": {"test_system": "ras transformation in NIH/3T3 cells", "experiment": "generation of DAG and PA in ras-transformed NIH/3T3 cells", "assay_type": "cell-based", "settings": "pretreatment of cells; 4-12 hours", "excerpt": "For example, activating ras mutations result in increased generation of DAG upon stimulation with mitogens, although the sources of DAG differ between experimental systems. In nontransformed renal mesangial cells, IL-1β stimulation increased PLA2 and LPAAT activation, resulting in generation of sn-2 unsaturated PA and subsequent hydrolysis to DAG by phosphatidate phosphohydrolase. The ras transformation in NIH/3T3 cells upregulates serum-stimulated generation of DAG and PA. Particular species of DAG that is stimulated by serum is dioleoyl and of PA are dilinoleoyl and dioleoyl. […] The inhibition occurs either through suppressing the generation of PA de novo from lysoPA, or through inhibition of one or both arms of the Lands cycle. […] Therefore, the ras transformation mediates an upregulation of PA through indirect stimulation of PLA2 and/or LPAAT activity."}, "[2]": {"test_system": "ras-transformed NIH/3T3 cells"}, "[3]": {"test_system": "polymorphonuclear leukocytes", "settings": "cited from earlier work"}, "[4]": {"test_system": "tumor necrosis factor (TNF)", "settings": "normal volunteers; cited from earlier work"}},
  "data": [
    {"compound": "CC(=O)CCCCn1c(=O)c2c(ncn2C)n(C)c1=O", "note": "[PTX, 1-(5-oxohexyl)-3,7-dimethylxanthine]", "values": [
      {"measurement": "protection of L929 cells from TNF-induced cytotoxicity", "setting": "L929 cells", "value": "inhibited TNF-induced cytotoxicity in a dose dependent manner"},
      {"measurement": "blocking of PAPH", "setting": "PAPH", "value": "blocks PAPH in a specific activation pathway"},
      {"measurement": "DAG derived from remodeled and PLA-generated PA", "setting": "LPAAT; PTX-treated cells", "value": "diminished"},
      {"measurement": "formation of remodeled PA", "setting": "LPAAT; in vitro, high PTX concentrations", "value": "blocks formation of remodeled PA through the PA/DAG pathway at high PTX concentrations"},
      {"measurement": "generation of phospholipid second messengers (DAG, PA)", "setting": "[1]", "value": "blocks generation of these phospholipid second messengers"},
      {"measurement": "inhibition of ras-transformed NIH/3T3 cells relative to parental cells", "setting": "[2]", "value": "inhibits ras-transformed NIH/3T3 cells more than parental cells"},
      {"measurement": "reversibility / cytotoxicity of inhibition", "setting": "[2]", "value": "reversible and is not associated with significant cytotoxicity"},
      {"measurement": "inhibition of cytokine activity to affect chemotaxis", "setting": "[3]; U.S. Pat. Nos. 4,965,271 and 5,096,906", "value": "inhibit activity of certain cytokines to affect chemotaxis"},
      {"measurement": "stimulation of chemotaxis in polymorphonuclear leukocytes", "setting": "[3]; in response to a stimulator of chemotaxis, U.S. Pat. No. 4,636,507", "value": "stimulate chemotaxis in polymorphonuclear leukocytes"},
      {"measurement": "TNF levels", "setting": "[4]", "value": "TNF levels were higher among PTX recipients"}
    ]}
  ]
}
